Tests used:
PC-3 = experiment: NCI-60 5-dose screen; assay type: cell-based, human; settings: for GI50 / CC50: Homo sapiens; for CC50: read-out: LC50 (the source's name)
IGROV1 = experiment: NCI-60 5-dose screen; assay type: cell-based, human; settings: for GI50 / CC50: Homo sapiens; for GI50: IGROV-1; for CC50: IGROV-1, read-out: LC50 (the source's name)
M14 = experiment: NCI-60 5-dose screen; assay type: cell-based, human; settings: for GI50 / CC50: Homo sapiens; for CC50: read-out: LC50 (the source's name)
SR = experiment: NCI-60 5-dose screen; assay type: cell-based, human; settings: for GI50 / CC50: Homo sapiens; for CC50: read-out: LC50 (the source's name)
NCI-H226 = experiment: NCI-60 5-dose screen; assay type: cell-based, human; settings: for GI50 / CC50: Homo sapiens; for CC50: read-out: LC50 (the source's name)
HT29 = experiment: NCI-60 5-dose screen; assay type: cell-based, human; settings: for GI50 / CC50: Homo sapiens; for GI50: HT-29; for CC50: HT-29, read-out: LC50 (the source's name)
U251 = experiment: NCI-60 5-dose screen; assay type: cell-based, human; settings: for GI50 / LC50 (50% lethal concentration): Homo sapiens, U-251
SNB-75 = experiment: NCI-60 5-dose screen; assay type: cell-based, human; settings: for GI50 / CC50: Homo sapiens; for CC50: read-out: LC50 (the source's name)
HS 578T = experiment: NCI-60 5-dose screen; assay type: cell-based, human; settings: for GI50 / CC50: Homo sapiens; for CC50: read-out: LC50 (the source's name)
CAKI-1 = experiment: NCI-60 5-dose screen; assay type: cell-based, human; settings: for GI50 / CC50: Homo sapiens; for CC50: read-out: LC50 (the source's name)
A549/ATCC = experiment: NCI-60 5-dose screen; assay type: cell-based, human; settings: for GI50 / CC50: Homo sapiens; for CC50: read-out: LC50 (the source's name)
HL-60(TB) = experiment: NCI-60 5-dose screen; assay type: cell-based, human; settings: for GI50 / CC50: Homo sapiens; for CC50: read-out: LC50 (the source's name)
SF-268 = experiment: NCI-60 5-dose screen; assay type: cell-based, human; settings: for GI50 / CC50: Homo sapiens; for CC50: read-out: LC50 (the source's name)
ACHN = experiment: NCI-60 5-dose screen; assay type: cell-based, human; settings: for GI50 / CC50: Homo sapiens; for CC50: read-out: LC50 (the source's name)
HOP-92 = experiment: NCI-60 5-dose screen; assay type: cell-based, human; settings: for GI50 / CC50: Homo sapiens; for CC50: read-out: LC50 (the source's name)
MDA-MB-468 = experiment: NCI-60 5-dose screen; assay type: cell-based, human; settings: for GI50 / CC50: Homo sapiens; for CC50: read-out: LC50 (the source's name)
OVCAR-4 = experiment: NCI-60 5-dose screen; assay type: cell-based, human; settings: for GI50 / CC50: Homo sapiens; for CC50: read-out: LC50 (the source's name)
SK-OV-3 = experiment: NCI-60 5-dose screen; assay type: cell-based, human; settings: for GI50 / CC50: Homo sapiens; for CC50: read-out: LC50 (the source's name)
MALME-3M = experiment: NCI-60 5-dose screen; assay type: cell-based, human; settings: for GI50 / CC50: Homo sapiens, Malme-3M; for CC50: read-out: LC50 (the source's name); for TGI: MALME-3M
SW-620 = experiment: NCI-60 5-dose screen; assay type: cell-based, human; settings: for GI50 / CC50: Homo sapiens; for CC50: read-out: LC50 (the source's name)
U-118MG = experiment: CellTiter-Glo 2.0 cytotoxicity, glioblastoma; assay type: cell-based, human; settings: 50 µM, 24 h
Procedure: (§1) Cytotoxicity of compounds was assessed using the CellTiter-Glo® 2.0 Assay (Promega, Madison, WI, USA) on human gingival fibroblasts (HGF), osteosarcoma (HOS and MG-63) and glioblastoma (LN-229 and U-118MG) cells, according to the manufacturer’s instructions. HGF, HOS, MG-63 and U-118MG cells were purchased from Cytion GmbH, Eppelheim, Germany, and LN-229 (CRL-2611) from the American Type Culture Collection (ATCC), Manassas, VA, USA. Cells were seeded (50,000 cells/mL—HGF, 100,000 cells/mL—tumor cells) into 96-well opaque white tissue culture-treated plates and allowed to adhere overnight in αMEM medium with 10% fetal bovine serum and 1% antibiotic-antimycotic (all from PAN—Biotech GmbH, Aidenbach, Germany). Cells were incubated with compounds (10 or 50 µM) for 24 h, then CellTiter-Glo® reagent was added and luminescence was recorded using a FLUOstar® Omega microplate reader (BMG LABTECH, Ortenberg, Germany). The experiments were carried out in triplicate, and the viability of treated cells was expressed as a percentage of the viability of control cells (untreated). Data were represented as means ± standard deviations. Stock solutions of compounds were prepared in DMSO, then diluted in complete cell culture media. […] Data were analyzed with independent two-tailed (Student’s) t-test, considering p < 0.05 statistically significant.

LN-229 = experiment: CellTiter-Glo 2.0 cytotoxicity, glioblastoma; assay type: cell-based, human; settings: LN-229, 24 h
Procedure: as §1

OVCAR-3 = experiment: NCI-60 5-dose screen; assay type: cell-based, human; settings: for GI50 / CC50: Homo sapiens; for CC50: read-out: LC50 (the source's name)
[1] = system: osteosarcoma (HOS and MG-63) cells; experiment: CellTiter-Glo 2.0 cytotoxicity, osteosarcoma; assay type: cell-based, human; settings: osteosarcoma cell lines, 10 and 50 µM, 24 h
Procedure: as §1

[2] = system: Gram-positive and Gram-negative bacteria; parameters: method as in PMID 38398524; settings: cited from earlier work
[3] = system: human gingival fibroblasts (HGF); experiment: CellTiter-Glo 2.0 cytotoxicity, normal fibroblasts; assay type: cell-based; settings: 50 µM, 24 h
Procedure: as §1

fungal strains = system: fungal strains; parameters: method as in PMID 38398524; settings: cited from earlier work

O=C1C(Nc2ccc(I)cc2)=CC(c2ccc(C(F)(F)F)cc2)N1c1ccc(I)cc1 (centres unmarked) [3e]
TGI (PC-3): >100 µM | GI50 (PC-3): 9.99 µM | CC50 (PC-3): > 100 µM | TGI (IGROV1): >100 µM | GI50 (IGROV1): > 100 µM | CC50 (IGROV1): > 100 µM | TGI (M14): >100 µM | GI50 (M14): 8.94 µM | CC50 (M14): > 100 µM | TGI (SR): >100 µM | GI50 (SR): 2.84 µM | CC50 (SR): > 100 µM | TGI (NCI-H226): >100 µM | GI50 (NCI-H226): 8.48 µM | CC50 (NCI-H226): > 100 µM | TGI (HT29): >100 µM | GI50 (HT29): > 100 µM | CC50 (HT29): > 100 µM | TGI (U251): >100 µM | GI50 (U251): 8.97 µM | LC50 (50% lethal concentration) (U251): > 100 µM | TGI (SNB-75): 5.06 µM | GI50 (SNB-75): 2.6 µM | CC50 (SNB-75): 9.85 µM | TGI (HS 578T): 9.97 µM | GI50 (HS 578T): 3.45 µM | CC50 (HS 578T): > 100 µM | TGI (CAKI-1): >100 µM | GI50 (CAKI-1): 3.72 µM | CC50 (CAKI-1): > 100 µM | TGI (A549/ATCC): >100 µM | GI50 (A549/ATCC): > 100 µM | CC50 (A549/ATCC): > 100 µM | TGI (HL-60(TB)): >100 µM | GI50 (HL-60(TB)): 4.48 µM | CC50 (HL-60(TB)): > 100 µM | TGI (SF-268): >100 µM | GI50 (SF-268): 4.66 µM | CC50 (SF-268): > 100 µM | TGI (ACHN): >100 µM | GI50 (ACHN): 4.05 µM | CC50 (ACHN): > 100 µM | TGI (HOP-92): 7.22 µM | GI50 (HOP-92): 3.15 µM | CC50 (HOP-92): > 100 µM | TGI (MDA-MB-468): >100 µM | GI50 (MDA-MB-468): 3.24 µM | CC50 (MDA-MB-468): > 100 µM | TGI (OVCAR-4): 4.41 µM | GI50 (OVCAR-4): 1.82 µM | CC50 (OVCAR-4): > 100 µM | TGI (SK-OV-3): >100 µM | GI50 (SK-OV-3): > 100 µM | CC50 (SK-OV-3): > 100 µM | GI50 (MALME-3M): 2 µM | CC50 (MALME-3M): 9.34 µM | TGI (MALME-3M): 4.32 µM | TGI (SW-620): >100 µM | GI50 (SW-620): > 100 µM | CC50 (SW-620): > 100 µM | cytotoxicity (activity in words) (U-118MG): moderate activity | cytotoxicity (activity in words) (LN-229): ineffective | TGI (OVCAR-3): >100 µM | GI50 (OVCAR-3): 7.48 µM | CC50 (OVCAR-3): > 100 µM

O=C1C(Nc2ccc(I)cc2)=CC(c2ccc(O)cc2)N1c1ccc(I)cc1 (centres unmarked) [3g]
cytotoxicity (activity in words) [1]: notable activity | cytotoxicity (activity in words) (U-118MG): moderate activity | cytotoxicity (activity in words) (LN-229): ineffective | antibacterial activity (in words) [2]: highest antibacterial activity

O=C1C(Nc2ccc(I)cc2)=CC(c2ccc(O)c(O)c2)N1c1ccc(I)cc1 (centres unmarked) [3h]
TGI (PC-3): >100 µM | GI50 (PC-3): 8.83 µM | CC50 (PC-3): > 100 µM | TGI (IGROV1): >100 µM | GI50 (IGROV1): > 100 µM | CC50 (IGROV1): > 100 µM | cytotoxicity (activity in words) [1]: notable activity | TGI (M14): >100 µM | GI50 (M14): 5.34 µM | CC50 (M14): > 100 µM | TGI (SR): 2.99 µM | GI50 (SR): 1.55 µM | CC50 (SR): 5.75 µM | TGI (NCI-H226): >100 µM | GI50 (NCI-H226): > 100 µM | CC50 (NCI-H226): > 100 µM | TGI (HT29): >100 µM | GI50 (HT29): 8.8 µM | CC50 (HT29): > 100 µM | TGI (U251): >100 µM | GI50 (U251): > 100 µM | LC50 (50% lethal concentration) (U251): > 100 µM | TGI (SNB-75): >100 µM | GI50 (SNB-75): > 100 µM | CC50 (SNB-75): > 100 µM | TGI (HS 578T): >100 µM | GI50 (HS 578T): 6.65 µM | CC50 (HS 578T): > 100 µM | TGI (CAKI-1): >100 µM | GI50 (CAKI-1): > 100 µM | CC50 (CAKI-1): > 100 µM | TGI (A549/ATCC): >100 µM | GI50 (A549/ATCC): > 100 µM | CC50 (A549/ATCC): > 100 µM | TGI (HL-60(TB)): 4.28 µM | GI50 (HL-60(TB)): 2.19 µM | CC50 (HL-60(TB)): 8.38 µM | TGI (SF-268): >100 µM | GI50 (SF-268): 6.04 µM | CC50 (SF-268): > 100 µM | TGI (ACHN): >100 µM | GI50 (ACHN): > 100 µM | CC50 (ACHN): > 100 µM | TGI (HOP-92): 8.97 µM | GI50 (HOP-92): 4.08 µM | CC50 (HOP-92): > 100 µM | TGI (MDA-MB-468): >100 µM | GI50 (MDA-MB-468): 3.1 µM | CC50 (MDA-MB-468): > 100 µM | cytotoxicity (activity in words) [3]: acute cytotoxicity | TGI (OVCAR-4): >100 µM | GI50 (OVCAR-4): 3.27 µM | CC50 (OVCAR-4): > 100 µM | TGI (SK-OV-3): >100 µM | GI50 (SK-OV-3): 7.6 µM | CC50 (SK-OV-3): > 100 µM | GI50 (MALME-3M): 2.68 µM | CC50 (MALME-3M): > 100 µM | TGI (MALME-3M): >100 µM | TGI (SW-620): >100 µM | GI50 (SW-620): > 100 µM | CC50 (SW-620): > 100 µM | cytotoxicity (activity in words) (U-118MG): moderate activity | cytotoxicity (activity in words) (LN-229): ineffective | TGI (OVCAR-3): >100 µM | GI50 (OVCAR-3): 9.16 µM | CC50 (OVCAR-3): > 100 µM

COc1ccccc1C1C=C(Nc2ccc(I)cc2)C(=O)N1c1ccc(I)cc1 (centres unmarked) [3i]
antifungal activity (in words) (fungal strains): most effective against fungal strains
